Where two headings read alike, the source gives them in different places.
Target: interaction between GST-MAGEA11 MHD and FAM-PCF11_4 peptide (MAGE-A11:PCF11) (Homo sapiens (Human), UniProt P43364)
Experiment: TR-FRET dose response competition assay for disruption of MAGE-A11:PCF11 binding
Procedure, shortened: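 Competition TR-FRET at room temperature in 50 mM Tris pH 7.5, 20 mM MgCl2, 0.1 mg/ml BSA, 1 mM DTT: final 5 nM GST-MAGEA11 MHD, 5 nM Tb-anti-GST, 200 nM FAM-PCF11_4, 90 min. Ratio 520/490 nm converted to % inhibition; IC50 from sigmoidal fit.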

[1] = Dose response TR-FRET screening of nine scaffold groups against MAGE-A11:PCF11, read-out: consensus IC50
[2] = Table 8, representative compounds, read-out: TR-FRET IC50

Chain of interaction between GST-MAGEA11 MHD and FAM-PCF11_4 peptide (MAGE-A11:PCF11) (P43364 218-429): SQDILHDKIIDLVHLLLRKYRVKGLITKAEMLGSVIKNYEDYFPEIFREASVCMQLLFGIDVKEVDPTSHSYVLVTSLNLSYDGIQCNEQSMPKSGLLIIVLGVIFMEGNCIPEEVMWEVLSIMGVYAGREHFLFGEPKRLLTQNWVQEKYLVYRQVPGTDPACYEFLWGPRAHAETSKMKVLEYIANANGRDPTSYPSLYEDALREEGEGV

SMILES	IC50 [1]	other results
C=CCn1c(=O)c2c(nc(-c3ccc(S(=O)(=O)O)cc3)n2C)n(C)c1=O [SJ000287614-4]	75.1 µM	–
Cn1c(=O)c2nc(-c3ccc(S(=O)(=O)O)cc3)[nH]c2n(C)c1=O [SJ000287642-4]	21.8 µM	–
CCCn1c(=O)c2nc(-c3ccc(S(=O)(=O)O)cc3)[nH]c2n(CCC)c1=O [SJ000287650-2]	69.9 µM	–
CCCn1c(=O)c2nc(-c3ccc(OCC(=O)Nc4ccc(C#N)cc4)cc3)[nH]c2n(CCC)c1=O [SJ000287997-2]	69.9 µM	–
Cn1c(=O)c2nc(-c3ccccc3)[nH]c2n(C)c1=O [SJ000288094-2]	69.9 µM	–
COc1cc2nc(N3CCN(C(=O)OCc4ccccc4)C(C(=O)NC(C)(C)C)C3)nc(N)c2cc1OC (stereo not drawn) [SJ000288233-2]	69.9 µM	–
CCCn1c(=O)c2nc(-c3ccc(OCC(=O)NCCN)cc3)[nH]c2n(CCC)c1=O [SJ000288288-2]	69.9 µM	–
Cn1c2ccccc2c2cc(C3Nc4ccccc4C(=O)N3Cc3ccccc3)ccc21 (stereo not drawn) [SJ000288408-1]	69.9 µM	–
CCCN1C(=O)c2ccccc2NC1c1cccc(F)c1 (stereo not drawn) [SJ000288416-1]	69.9 µM	–
COc1ccc(C2Nc3ccccc3C(=O)N2Cc2ccccc2)cc1Cn1nc(C)c([N+](=O)[O-])c1C (stereo not drawn) [SJ000288419-1]	69.9 µM	–
CCCN1C(=O)c2ccccc2NC1c1ccc(C)cc1 (stereo not drawn) [SJ000288423-2]	69.9 µM	–
CCCN1C(=O)c2ccccc2NC1c1ccc(Cl)cc1Cl (stereo not drawn) [SJ000288424-2]	69.9 µM	–
CCCN1C(=O)c2ccccc2NC1c1ccc(OC)c(COc2ccc([N+](=O)[O-])cc2)c1 (stereo not drawn) [SJ000288430-1]	69.9 µM	–
CCOc1cc(C2Nc3ccccc3C(=O)N2Cc2ccccc2)ccc1O (stereo not drawn) [SJ000288432-1]	69.9 µM	–
COc1ccc(C2Nc3ccccc3C(=O)N2Cc2ccccc2)cc1Cn1cc([N+](=O)[O-])cn1 (stereo not drawn) [SJ000288433-1]	69.9 µM	–
CCCN1C(=O)c2ccccc2NC1c1ccc(OC)c(CSc2ccccn2)c1 (stereo not drawn) [SJ000288444-1]	69.9 µM	–
CCCN1C(=O)c2ccccc2NC1c1ccccc1F (stereo not drawn) [SJ000288611-1]	69.9 µM	–
O=C1c2ccccc2NC(c2ccc3c(c2)OCO3)N1Cc1ccccc1 (stereo not drawn) [SJ000288627-1]	69.9 µM	–
COc1ccc(C2Nc3ccccc3C(=O)N2Cc2ccccc2)cc1Cn1nc(C)c(Cl)c1C (stereo not drawn) [SJ000288637-1]	69.9 µM	–
CCCN1C(=O)c2ccccc2NC1c1ccc2c(c1)OCO2 (stereo not drawn) [SJ000288667-1]	69.9 µM	–
CC(=O)N(C)C1=C(Cl)C(=O)c2ccccc2C1=O [SJ000290718-2]	69.9 µM	–

SMILES	IC50 [1]	other results
NC1=C(N2CCCCC2)C(=O)c2ccccc2C1=O [SJ000294373-2]	20.1 µM	–
CCCN1C(=O)c2ccccc2NC1c1c(Cl)cccc1Cl (stereo not drawn) [SJ000295321-1]	69.9 µM	–
COc1ccc(C2Nc3ccccc3C(=O)N2Cc2ccccc2)cc1COc1ccccc1F (stereo not drawn) [SJ000295328-2]	69.9 µM	–
COc1ccc(C2Nc3ccccc3C(=O)N2Cc2ccccc2)cc1CN1C(=O)c2ccccc2C1=O (stereo not drawn) [SJ000295698-1]	69.9 µM	–
COc1cccc(OCc2cc(C3Nc4ccccc4C(=O)N3Cc3ccccc3)ccc2OC)c1 (stereo not drawn) [SJ000295704-1]	69.9 µM	–
CCCN1C(=O)c2ccccc2NC1c1ccc(O)c(OC)c1 (stereo not drawn) [SJ000295722-1]	69.9 µM	–
CCCN1C(=O)c2ccccc2NC1c1ccc(OC)c(COc2ccccc2F)c1 (stereo not drawn) [SJ000295736-1]	69.9 µM	–
CCCN1C(=O)c2ccccc2NC1c1ccc(OC)c(COc2ccc([N+](=O)[O-])c(C)c2)c1 (stereo not drawn) [SJ000295745-1]	69.9 µM	–
CCCN1C(=O)c2ccccc2NC1c1ccc(Cl)c(Cl)c1 (stereo not drawn) [SJ000296071-1]	69.9 µM	–
Cc1nc2cc(-c3ccccc3)sc2c(=O)n1N [SJ000296471-1]	69.9 µM	–
COc1ccc(-c2cc3nc[nH]c(=O)c3s2)cc1 [SJ000296726-1]	69.9 µM	–
CC(=O)N(C1=C(Cl)C(=O)c2ccccc2C1=O)c1ccc(Cl)cc1 [SJ000296883-2]	69.9 µM	–
O=C1C(Cl)=C(Nc2ccc(Cl)cc2)C(=O)c2ccccc21 [SJ000297073-1]	69.9 µM	–
CCn1c2ccccc2c2cc(CN3CCN(C(=O)c4ccc(OC)c(OC)c4)CC3)ccc21 [SJ000298589-1]	69.9 µM	–
COC(=O)c1ccc(NC2=C(Cl)C(=O)c3ccccc3C2=O)cc1 [SJ000299646-1]	69.9 µM	–
CC1CCCC(C)C1NC1=C(Cl)C(=O)c2ccccc2C1=O (stereo not drawn) [SJ000299694-1]	69.9 µM	–
CC(=O)N(C1=C(Cl)C(=O)c2ccccc2C1=O)c1ccc(Br)cc1 [SJ000299699-2]	69.9 µM	–
O=C1C(Cl)=C(Nc2ccc(Nc3ccccc3)cc2)C(=O)c2ccccc21 [SJ000299708-1]	69.9 µM	–
NC1=C(Nc2cccc3ccccc23)C(=O)c2ccccc2C1=O [SJ000300361-1]	69.9 µM	–
Cn1c2ccccc2c2cc(C(=O)N3CCc4nncn4CC3)ccc21 [SJ000307416-1]	69.9 µM	–
CCn1c2ccccc2c2cc(CN3CCc4nnc(CNS(=O)(=O)C(C)C)n4CC3)ccc21 [SJ000307753-1]	69.9 µM	–

SMILES	IC50 [1]	other results
CCn1c2ccccc2c2cc(CN3CCc4nnc(C(C)NC(=O)CCOC)n4CC3)ccc21 (stereo not drawn) [SJ000307915-1]	69.9 µM	–
CCn1c2ccccc2c2cc(CN3CCc4nnc(CNC(=O)c5ccccc5)n4CC3)ccc21 [SJ000307948-1]	69.9 µM	–
Cn1c2ccccc2c2cc(C(=O)NCC3CCC4(CCN(Cc5ccccn5)CC4)O3)ccc21 (stereo not drawn) [SJ000308489-1]	69.9 µM	–
COc1ccccc1CNCCCNc1ccnc2cc(Cl)ccc12 [SJ000311185-1]	69.9 µM	–
COc1ccccc1CNCCCNc1ccnc2cc(Cl)ccc12 [SJ000311185]	–	IC50 [2]: 69.9 µM
Oc1ccc(Br)cc1CNCCCNc1ccnc2cc(Cl)ccc12 [SJ000311186-1]	69.9 µM	–
Oc1ccc(Br)cc1CNCCCNc1ccnc2cc(Cl)ccc12 [SJ000311186]	–	IC50 [2]: 69.9 µM
Oc1ccccc1CNCCCNc1ccnc2cc(Cl)ccc12 [SJ000311187-1]	69.9 µM	–
Oc1ccccc1CNCCCNc1ccnc2cc(Cl)ccc12 [SJ000311187]	–	IC50 [2]: 69.9 µM
COc1ccc(O)c(C(C)NCCCNc2ccnc3cc(Cl)ccc23)c1 (stereo not drawn) [SJ000311188-1]	69.9 µM	–
COc1ccc(O)c(C(C)NCCCNC2C=CN=C3C=C(Cl)C=CC32)c1 (stereo not drawn) [SJ000311188]	–	IC50 [2]: 69.9 µM
O=[N+]([O-])c1ccc(CNCCCNc2ccnc3cc(Cl)ccc23)cc1O [SJ000311191-1]	69.9 µM	–
O=[N+]([O-])c1ccc(CNCCCNc2ccnc3cc(Cl)ccc23)cc1O [SJ000311191]	–	IC50 [2]: 69.9 µM
COc1ccc(CNCCCNc2ccnc3cc(Cl)ccc23)cc1O [SJ000311192-1]	69.9 µM	–
COc1ccc(CNCCCNc2ccnc3cc(Cl)ccc23)cc1O [SJ000311192]	–	IC50 [2]: 69.9 µM
CC(C)(C)c1ccc(O)c(CNCCCNc2ccnc3cc(Cl)ccc23)c1 [SJ000311193-1]	30.4 µM	–
CC(C)(C)c1ccc(O)c(CNCCCNc2ccnc3cc(Cl)ccc23)c1 [SJ000311193]	–	IC50 [2]: 30.4 µM
Oc1ccc(Br)c(CNCCCNc2ccnc3cc(Cl)ccc23)c1 [SJ000311194-1]	69.9 µM	–
Oc1ccc(Br)c(CNCCCNc2ccnc3cc(Cl)ccc23)c1 [SJ000311194]	–	IC50 [2]: 69.9 µM
CCCN(CCCCNc1ccnc2cc(Cl)ccc12)Cc1cc(Br)ccc1O [SJ000311196-1]	69.9 µM	–
COc1cccc(CNCCCNc2ccnc3cc(Oc4ccccc4)ccc23)c1O [SJ000311207-1]	69.9 µM	–

SMILES	IC50 [1]	other results
COc1cccc(CNCCCNc2ccnc3cc(Oc4ccccc4)ccc23)c1O [SJ000311207]	–	IC50 [2]: 69.9 µM
c1ccc(Oc2ccc3c(NCCCNCc4cccc5c4OCO5)ccnc3c2)cc1 [SJ000311208-1]	30.1 µM	–
c1ccc(Oc2ccc3c(NCCCNCc4cccc5c4OCO5)ccnc3c2)cc1 [SJ000311208]	–	IC50 [2]: 30.1 µM
COc1ccc(F)cc1CNCCCNc1ccnc2cc(Oc3ccccc3)ccc12 [SJ000311209-1]	29 µM	–
COc1ccc(F)cc1CNCCCNc1ccnc2cc(Oc3ccccc3)ccc12 [SJ000311209]	–	IC50 [2]: 29 µM
COc1ccccc1Oc1ccc2c(NCCCNCc3cccc(OC)c3O)ccnc2c1 [SJ000311211-1]	69.9 µM	–
COc1ccccc1Oc1ccc2c(NCCCNCc3cccc(OC)c3O)ccnc2c1 [SJ000311211]	–	IC50 [2]: 69.9 µM
COc1ccccc1Oc1ccc2c(NCCCNCc3cccc4c3OCO4)ccnc2c1 [SJ000311212-1]	69.9 µM	–
COc1ccccc1Oc1ccc2c(NCCCNCc3cccc4c3OCO4)ccnc2c1 [SJ000311212]	–	IC50 [2]: 69.9 µM
COc1ccc(F)cc1CNCCCNc1ccnc2cc(Oc3ccccc3OC)ccc12 [SJ000311213-1]	69.9 µM	–
COc1ccc(F)cc1CNCCCNc1ccnc2cc(Oc3ccccc3OC)ccc12 [SJ000311213]	–	IC50 [2]: 69.9 µM
COc1cccc(Oc2ccc3c(NCCCNCc4cccc(OC)c4O)ccnc3c2)c1 [SJ000311215-1]	69.9 µM	–
COc1cccc(Oc2ccc3c(NCCCNCc4cccc(OC)c4O)ccnc3c2)c1 [SJ000311215]	–	IC50 [2]: 69.9 µM
COc1cccc(Oc2ccc3c(NCCCNCc4cccc5c4OCO5)ccnc3c2)c1 [SJ000311216-1]	36.9 µM	–
COc1cccc(Oc2ccc3c(NCCCNCc4cccc5c4OCO5)ccnc3c2)c1 [SJ000311216]	–	IC50 [2]: 36.9 µM
COc1cccc(Oc2ccc3c(NCCCNCc4cc(F)ccc4OC)ccnc3c2)c1 [SJ000311217-1]	36.8 µM	–
COc1cccc(Oc2ccc3c(NCCCNCc4cc(F)ccc4OC)ccnc3c2)c1 [SJ000311217]	–	IC50 [2]: 36.8 µM
COc1ccc(Oc2ccc3c(NCCCNCc4ccco4)ccnc3c2)cc1 [SJ000311218-1]	–	IC50 (Table 5, dose response TR-FRET screening of 59 quinoline compounds against MAGE-A11:PCF11, read-out: TR-FRET IC50): > 70 µM
COc1ccc(Oc2ccc3c(NCCCNCc4cccc(OC)c4O)ccnc3c2)cc1 [SJ000311219-1]	29 µM	–
COc1ccc(Oc2ccc3c(NCCCNCc4cccc(OC)c4O)ccnc3c2)cc1 [SJ000311219]	–	IC50 [2]: 29.1 µM
COc1ccc(Oc2ccc3c(NCCCNCc4cccc5c4OCO5)ccnc3c2)cc1 [SJ000311220-1]	43.7 µM	–
